{"source": "paper PMC12040169", "about": "(PLOS Biology, 2025)", "data": [{"assay": "in vitro", "settings": "human, hela cells, % viability", "units": {"viability at 28.5 h, 10 µM": "%"}, "values": [{"smiles": "CCN1CCC[C@@H]1CNC(=O)c1n[nH]c2c1CCC2", "note": "[CBK174628]", "viability at 28.5 h, 10 µM": 106}, {"smiles": "O=C(O)CSc1cccc([N+](=O)[O-])c1", "note": "[CBK110160]", "viability at 28.5 h, 10 µM": 101}, {"smiles": "Cn1cc2c(n1)[C@H]1CN(C(=O)c3cc(C(F)(F)F)n(C)n3)C[C@H]1C2", "note": "[CBK283399]", "viability at 28.5 h, 10 µM": 88.5}, {"smiles": "O=C(NCCCN1CCCC1)Nc1ccccc1[N+](=O)[O-]", "note": "[CBK267959]", "viability at 28.5 h, 10 µM": 97}, {"smiles": "CN(C)S(=O)(=O)N1CCN(C(=O)N(c2ccccc2)c2ccccc2)CC1", "note": "[CBK267466]", "viability at 28.5 h, 10 µM": 96.7}, {"smiles": "O=C(NC1CCc2ccccc21)N1CCN(Cc2ccccc2)CC1", "note": "(stereo not shown) [CBK155662]", "viability at 28.5 h, 10 µM": 97}, {"smiles": "O=[N+]([O-])c1ccc(O)c(/C=N/Nc2nc(Nc3ccc(Cl)cc3)nc(N3CCOCC3)n2)c1", "note": "[CBK260918]", "viability at 28.5 h, 10 µM": 90.2}, {"smiles": "COc1cc(Nc2cncc(-c3ccc(O)cc3)n2)c(Cl)cc1C(=O)NCCCN(C)C", "note": "[CBK122651]", "viability at 28.5 h, 10 µM": 81.1}, {"smiles": "Cc1ncsc1CCOc1ncccc1C(F)(F)F", "note": "[CBK115781]", "viability at 28.5 h, 10 µM": 92.2}, {"smiles": "Cc1cc(C)nc(SCCC(=O)O)n1", "note": "[CBK260975]", "viability at 28.5 h, 10 µM": 87.7}, {"smiles": "O=C(NCCCO)c1ccc(/C=N/O)nc1", "note": "[CBK264560]", "viability at 28.5 h, 10 µM": 97.7}, {"smiles": "CCOc1cccc(CNC(=O)N2CCC(Cc3cnn(C)c3)C2)c1", "note": "(stereo not shown) [CBK305280]", "viability at 28.5 h, 10 µM": 115}, {"smiles": "Cc1ccc(C)c(NC(=O)CCNC(=O)c2cnn3cc(C)cnc23)c1", "note": "[CBK306590]", "viability at 28.5 h, 10 µM": 87.5}, {"smiles": "O=C(CNC(=O)c1ccc(OC(F)F)cc1)NCCCn1cccn1", "note": "[CBK297789]", "viability at 28.5 h, 10 µM": 106}, {"smiles": "CCn1c(C(C)NC2CCN(CC(=O)OC)CC2)nc2ccccc21", "note": "(stereo not shown) [CBK305396]", "viability at 28.5 h, 10 µM": 97.9}, {"smiles": "Cc1ccc(S(=O)(=O)Nc2c(C(=O)N3CCN(C)CC3)sc3ncccc23)cc1[N+](=O)[O-]", "note": "[CBK050025]", "viability at 28.5 h, 10 µM": 91.2}, {"smiles": "COC(=O)c1c(NC(=S)NCc2ccccn2)sc(C(=O)N(C)C)c1C", "note": "[CBK267055]", "viability at 28.5 h, 10 µM": 98.8}, {"smiles": "Cc1nc(CCNC(=O)N(Cc2ccsc2)C2CC2)nc2c1CCCC2", "note": "[CBK307674]", "viability at 28.5 h, 10 µM": 88.5}, {"smiles": "COCCNc1nc(-c2cc(C(C)C)ccc2OC)ccc1C(=O)NCCNC(C)=O", "note": "[CBK105985]", "viability at 28.5 h, 10 µM": 96.6}, {"smiles": "CCC(CO)Nc1nccnc1-c1ccc(CO)cc1", "note": "(stereo not shown) [CBK036607]", "viability at 28.5 h, 10 µM": 93}, {"smiles": "Cc1ccc(C)c(NC(=O)CC2C(=O)N(c3ccccc3)C(=S)N2Cc2ccco2)c1", "note": "(stereo not shown) [CBK267119]", "viability at 28.5 h, 10 µM": 94.3}, {"smiles": "CC(=O)Nc1ccc(OCC(O)Cn2cnc3ncccc3c2=O)cc1", "note": "(stereo not shown) [CBK304541]", "viability at 28.5 h, 10 µM": 86.4}, {"smiles": "Sc1nnc(CSCc2ccccc2Cl)n1-c1ccccc1", "note": "[CBK265219]", "viability at 28.5 h, 10 µM": 100}, {"smiles": "CCOC(=O)Cc1csc(NS(=O)(=O)c2cc(Cl)c(Cl)s2)n1", "note": "[CBK000847]", "viability at 28.5 h, 10 µM": 98}, {"smiles": "O=C(Cn1nnc(-c2ccc3c(c2)OCO3)n1)Nc1ccccc1C(=O)O", "note": "[CBK268025]", "viability at 28.5 h, 10 µM": 101}, {"smiles": "Cc1nc(C)n(CCC(=O)NC(C)c2cccs2)n1", "note": "(stereo not shown) [CBK282224]", "viability at 28.5 h, 10 µM": 105}, {"smiles": "O=C(/C=C/c1ccc(Cl)cc1Cl)Nc1sc2c(c1C(=O)NCc1cccnc1)CCCC2", "note": "[CBK265497]", "viability at 28.5 h, 10 µM": 99.3}, {"smiles": "CCN(CC(=O)NCc1ccncc1)S(=O)(=O)c1ccccc1", "note": "[CBK269537]", "viability at 28.5 h, 10 µM": 88.7}, {"smiles": "Nc1ncncc1-c1noc([C@@H]2CCCN2c2ncccn2)n1", "note": "[CBK288901]", "viability at 28.5 h, 10 µM": 111}, {"smiles": "Cn1ccnc1C(NC(=O)N1CCCCC1)c1ccc(F)c(F)c1", "note": "(stereo not shown) [CBK283832]", "viability at 28.5 h, 10 µM": 107}, {"smiles": "COCCN1CC[C@@H]2[C@@H](C/C=C/Cc3ccccc3OCC(=O)N2C)C1", "note": "[CBK292134]", "viability at 28.5 h, 10 µM": 98}, {"smiles": "CC(C)(C)c1ccc(C(=O)N2CCN(C(=O)CN3CCOCC3)C2)cc1", "note": "[CBK051554C]", "viability at 28.5 h, 10 µM": 112}, {"smiles": "COc1ccc([N+](=O)[O-])cc1NC(=O)Nc1ccc(Cl)c(Cl)c1", "note": "[CBK267593]", "viability at 28.5 h, 10 µM": 99.5}, {"smiles": "COc1ccccc1OCCO", "note": "[CBK000949]", "viability at 28.5 h, 10 µM": 98.3}, {"smiles": "O=C1NC(=O)C(CC(=O)N2CCC3(CCCNC3)C2)N1", "note": "(stereo not shown) [CBK153232C]", "viability at 28.5 h, 10 µM": 79.2}, {"smiles": "CC(=O)Nc1cccc(CN2CCCC(CO)C2)c1", "note": "(stereo not shown) [CBK305527]", "viability at 28.5 h, 10 µM": 91.9}, {"smiles": "Cc1nn(C)cc1-c1c(C#N)c(N)nc2c1CN(Cc1ccco1)CC2", "note": "[CBK306722]", "viability at 28.5 h, 10 µM": 90.4}, {"smiles": "Cc1nc(C)c(C(=O)NCc2cccnc2N(C)C2CCCCC2)s1", "note": "[CBK306885]", "viability at 28.5 h, 10 µM": 95}, {"smiles": "Oc1ccc(CN2CCN(c3ncccn3)CC2)cc1", "note": "[CBK261567]", "viability at 28.5 h, 10 µM": 105}, {"smiles": "Cc1cc2cc3c(nc2cc1C)OCCNC3", "note": "[CBK281939]", "viability at 28.5 h, 10 µM": 97.1}, {"smiles": "CN1CCC(N(C)C(=O)NCc2cccc3ccccc23)C1", "note": "(stereo not shown) [CBK155999]", "viability at 28.5 h, 10 µM": 89.2}, {"smiles": "COc1ccc(N2CCN(c3cc(-c4cccc([N+](=O)[O-])c4)ncn3)CC2)cc1OC", "note": "[CBK091031]", "viability at 28.5 h, 10 µM": 86.4}, {"smiles": "COc1cc(NC(=O)N2CCC3(CC2)CC(=O)c2ccc(C)cc2O3)cc(OC)c1", "note": "[CBK166521]", "viability at 28.5 h, 10 µM": 90.3}, {"smiles": "Cc1cc(C)nc(NC(=N)NCc2ccccc2)n1", "note": "[CBK288157]", "viability at 28.5 h, 10 µM": 94.2}, {"smiles": "O=C(Nc1cccc2ccccc12)c1ccc(CSCc2ccccc2)cc1", "note": "[CBK263759]", "viability at 28.5 h, 10 µM": 105}, {"smiles": "O=C(c1ccccc1)N1C[C@H](c2ccsc2)[C@H]2CN(Cc3ccsc3)CC[C@H]21", "note": "[CBK285604]", "viability at 28.5 h, 10 µM": 118}, {"smiles": "Cc1ccc(CNC(=O)c2ccc3c(c2)nc(N2CC[C@H](O)C2)n3C)s1", "note": "[CBK306837]", "viability at 28.5 h, 10 µM": 90.9}, {"smiles": "O=C(O)c1ccc(-c2ccc(/C=C/c3[nH]c(=O)[nH]c(=O)c3[N+](=O)[O-])o2)cc1", "note": "[CBK268055]", "viability at 28.5 h, 10 µM": 105}, {"smiles": "Cc1ccc2nc(SCC(=O)Nc3ccccc3Br)c(C#N)cc2c1", "note": "[CBK068169]", "viability at 28.5 h, 10 µM": 94.4}, {"smiles": "Fc1ccc(-c2nccnc2NCc2ccncc2)cc1", "note": "[CBK088964]", "viability at 28.5 h, 10 µM": 98.8}, {"smiles": "COc1cccc(-c2nc(C3CCN(CCc4ccc(F)cc4)CC3)n3ccccc23)c1", "note": "[CBK035373]", "viability at 28.5 h, 10 µM": 94.7}, {"smiles": "CCN1CCN(Cc2c(O)ccc3c(=O)c(Oc4ccccc4Cl)c(C(F)(F)F)oc23)CC1", "note": "[CBK266627]", "viability at 28.5 h, 10 µM": 107}, {"smiles": "N#Cc1ccc(CN2CCCN(S(=O)(=O)c3ccc(C(=O)c4ccccc4)cc3)CC2)cc1", "note": "[CBK062962]", "viability at 28.5 h, 10 µM": 89.9}, {"smiles": "O=C(c1cncnc1)N1CCN(C(=O)c2ccco2)CC1", "note": "[CBK144477]", "viability at 28.5 h, 10 µM": 104}, {"smiles": "COc1cc(-c2ccc(/N=C/c3ccccc3O)c(OC)c2)ccc1/N=C/c1ccccc1O", "note": "[CBK261089]", "viability at 28.5 h, 10 µM": 101}, {"smiles": "CC(=O)c1ccc(CN2CCCN(S(=O)(=O)c3ccc(C(F)(F)F)cc3Cl)CC2)cc1", "note": "[CBK063106]", "viability at 28.5 h, 10 µM": 104}, {"smiles": "CCNC(=O)C1(Cc2ccccc2-c2ccccc2)CCN(C(=O)c2ccccc2)CC1", "note": "[CBK285700]", "viability at 28.5 h, 10 µM": 109}, {"smiles": "CC(C)C(=O)N1C[C@@H](N(C)C)[C@H](c2cn(C)c3ccccc23)C1", "note": "[CBK282717]", "viability at 28.5 h, 10 µM": 91.2}, {"smiles": "CCOC(=O)c1ccsc1NC(=O)C1CC=CCC1C(=O)O", "note": "(stereo not shown) [CBK270291]", "viability at 28.5 h, 10 µM": 97.5}, {"smiles": "Cc1nnc(C(C)N2CCN(Cc3noc(C(C)(C)C)n3)CC2)o1", "note": "(stereo not shown) [CBK305171]", "viability at 28.5 h, 10 µM": 85.7}, {"smiles": "O=C(COc1ccccc1Cl)Nc1nnc[nH]1", "note": "[CBK287946]", "viability at 28.5 h, 10 µM": 80.1}, {"smiles": "O=C(O)C1CC=CCC1C(=O)c1c[nH]c2ccccc12", "note": "(stereo not shown) [CBK286603]", "viability at 28.5 h, 10 µM": 90.7}, {"smiles": "COCC(=O)N1CCc2sccc2C1c1ccc(NCc2ccc(F)cc2)cc1", "note": "(stereo not shown) [CBK286445]", "viability at 28.5 h, 10 µM": 89.7}]}, {"assay": "in vitro", "settings": "human, hela cells, % viability, bulk resorufin, single well", "units": {"viability at 28.5 h, 10 µM": "%"}, "values": [{"smiles": "O=C(O)C=CC(=O)Nc1ccc(SC(F)(F)C(F)(F)C(F)(F)F)cc1", "note": "[CBK296104]", "viability at 28.5 h, 10 µM": 107}]}]}
